Test results taken from ChEMBL document CHEMBL1135222, “Anionic cyclophanes as potential reversal agents of muscle relaxants by chemical chelation” (Bioorg Med Chem Lett, 2002).

Tests used:
Type in all cases: functional, organism-based
Gallus gallus [1] = species on record: Gallus gallus; assay: Concentration that produced 50% reversal of gallamine induced neuromuscular block in the chick biventer assay
Gallus gallus [2] = species on record: Gallus gallus; assay: Concentration that produced 50% reversal of pancuronium induced neuromuscular block in the chick biventer assay
Gallus gallus [3] = species on record: Gallus gallus; assay: Tested for association constant against gallamine relaxant in chick biventer muscle preparation
Gallus gallus [4] = species on record: Gallus gallus; assay: Tested for association constant against pancuronium relaxant in chick biventer muscle preparation
Gallus gallus [5] = species on record: Gallus gallus; assay: Tested for the reversion of vecuronium-induced block in chick biventer assay

| SMILES | EC50 (Gallus gallus [1]) | EC50 (Gallus gallus [2]) | Ka (Gallus gallus [3]) | Ka (Gallus gallus [4]) | EC50 (Gallus gallus [5]) |
| --- | --- | --- | --- | --- | --- |
| O=C(O)c1cc2ccc1OCCCCCOc1ccc(cc1C(=O)O)Cc1ccc(c(C(=O)O)c1)OCCCCCOc1ccc(cc1C(=O)O)C2 | 1030 µM | 142 µM | 608 M⁻¹ | 167 M⁻¹ | – |
| O=C(O)c1cc2ccc1OCc1ccc(cc1)COc1ccc(cc1C(=O)O)Cc1ccc(c(C(=O)O)c1)OCc1ccc(cc1)COc1ccc(cc1C(=O)O)C2 | 563 µM | 292 µM | 3280 M⁻¹ | 2500 M⁻¹ | – |
| CN(C)C(=O)Oc1cccc([N+](C)(C)C)c1 [NEOSTIGMINE BROMIDE] | – | – | – | – | 0.028 µM |
| O=C(O)c1cc2ccc1OCc1ccc3cc(ccc3c1)COc1ccc(cc1C(=O)O)Cc1ccc(c(C(=O)O)c1)OCc1ccc3cc(ccc3c1)COc1ccc(cc1C(=O)O)C2 | 104 µM | 40 µM | 13200 M⁻¹ | 10400 M⁻¹ | – |
